In patent US20090124572A1, “Iron-containing nutritional supplement” (priority 2007, published 2009):

How the values were obtained:
[1] = dissolved in water; cited from earlier work
Caco-2 cells = test: In-solution treatment of Caco-2 cells, ferritin formation as index of iron uptake/bioavailability (Experiments 1 and 2); conditions: Experiment 1, 6-well plates, iron 20 μmol/L, AA 400 μmol/L, 20 hours
Method: Cell culture. Caco-2 cells were obtained from the American Type Culture Collection at passage 17 and used in experiments at passage 29-35. Cells were seeded at a density of 50,000 cells/cm^2 in collagen-treated 6-well or 24-well plates. The integrity of the monolayer was verified by optical microscopy. […] The cells were maintained in Dulbecco's Modified Eagle Medium (DMEM) plus 1% antibiotic/antimycotic solution, 25 mmol/L HEPES and 10% fetal bovine serum; the medium was changed every 2 days. Two days before the experiment, the growth medium was removed from each culture well, and the cell layer was washed and maintained with Minimum Essential Media (MEM) at pH 7.0. […] This enriched MEM contained less than 80 μg iron/L. Iron uptake experiments were conducted 13 days post-seeding.
Harvesting of Caco-2 cells for ferritin analysis. […] Ferritin concentration and total protein concentration were determined on an aliquot of the harvested cell suspension with a one-stage sandwich immunoradiometric assay and a colorimetric assay, respectively. […] Therefore, the ratio of ferritin/total protein expressed as ng ferritin/mg protein, was used as an index of the cellular iron uptake.
In-solution treatment. […] Cellular ferritin and total protein was then analyzed and compared among all treatments. […]

Molecule	pH of aqueous solution [1]	ferritin formation in Caco-2 cells in the presence of ascorbic acid (Caco-2 cells)
ferrous sulfate	about 2	–
[Cl][Fe]([Cl])[Cl] [FeCl3, ferric chloride]	–	significantly lower
